Literature values as cited in PMC7709506 (ESMO Open, 2020).

Conditions: patients, phase I/II trial; cited from earlier work

With `CNC(=O)c1cccc2cc(Oc3ccnc4cc(OCC5(N)CC5)c(OC)cc34)ccc12` [lucitanib] as the compound, how does the Hypertension read?
Its Hypertension is 91%.

What about the “grade 3 hypertension events” value of the same compound?
Its value is 57%.
